From patent US20060035879A1, “Organic Compounds” (priority 2002, published 2006)

Experiments:
[1] = test system: rat carotid artery balloon injury; assay: Rat carotid artery balloon injury model; assay type: in vivo
[2] = Drug release from polymer coatings in aqueous solution; assay type: physicochemical; settings: PBS pH 7.4 or PEG/water 40/60 v/v, 37°, solutions changed daily; stable = less than 10% variation of the drug release rate
Method: (§1) A stent (e.g. a Multi-Link Vision stent, Guidant Corp.; or a DRIVER stent, Medtronic Corp.) is weighed and then mounted on a rotating or other support for coating with a polymeric or other synthetic or biological carrier used as a drug reservoir. In an exemplary carrier application procedure, while the stent is rotating, a 100 μl aliquot of a solution of polylactide glycolide, 0.75 mg/ml of pimecrolimus and 0.0015 mg/ml 2,6-di-tert-butyl-4-methylphenol dissolved in a 50:50 mixture of methanol and tetrahydrofuran, is coated onto it. The coated stent is removed from the support and allowed to air-dry. After a final weighing the amount of coating on the stent is determined.
Drug Release from Polymer Coatings in Aqueous Solution
Four 2 cm pieces of stents coated as described in Example 3 above are placed into 100 ml of PBS having a pH of 7.4. Another 4 pieces from each series are placed into 100 ml of PEG/water solution (40/60 v/v, MW of PEG=400). The stent pieces are incubated at 37° in a shaker. The buffer and PEG solutions are changed daily and different assays are performed on the solution to determine the released pimecrolimus concentrations. […] The term “stable pimecrolimus” means that less than 10% variation of the drug release rate is observed.

[3] = Drug release from polymer coatings in plasma; assay type: physicochemical; settings: citrated human plasma, 37°, changed daily; stable = less than 10% variation of the drug release rate
Method: as §1
Drug Release from Polymer Coatings in Plasma
Release of pimecrolimus in plasma is also studied. 1 cm pieces of a coated stent are put into 1 ml of citrated human plasma (from Helena Labs) in lyophilized form and reconstituted by adding 1 ml of sterile deionized water. Three sets of stent plasma solutions are incubated at 37° and the plasma is changed daily. Different assays are performed on the solution to determine the released pimecrolimus concentrations.

[4] = test system: New Zealand White rabbit iliac arteries; assay: Rabbit iliac stent model (in-stent restenosis); assay type: in vivo; settings: oral gavage, vs placebo
Method: Inhibition of In-Stent Restenosis and Proximal and Distal Lesion Development at 28 Days in the Rabbit Iliac Stent Model A combined angioplasty and stenting procedure is performed in New Zealand White rabbit iliac arteries. Iliac artery balloon injury is performed by inflating a 3.0×9.0 mm angioplasty balloon in the mid-portion of the artery followed by “pull-back” of the catheter for 1 balloon length. Balloon injury is repeated 2 times, and a 3.0×12 mm stent is deployed at 6 atm for 30 seconds in the iliac artery. Balloon injury and stent placement is then performed on the contralateral iliac artery in the same manner. A post-stent deployment angiogram is performed. All animals receive oral aspirin 40 mg/day daily as anti-platelet therapy and are fed standard low-cholesterol rabbit chow. Twenty-eight days after stenting, animals are anesthetized and euthanized and the arterial tree is perfused at 100 mmHg with lactated Ringer's solution for several minutes, then perfused with 10% formalin at 100 mmHg for 15 minutes. The vascular section between the distal aorta and the proximal femoral arteries is excised and cleaned of periadventitial tissue. Three sections of artery are sampled: the stented section, the artery 5 mm immediately proximal to the stent and the artery 5 mm immediately distal to the stent is embedded in plastic. Sections are taken from the proximal, middle, and distal portions of each stent. Serial sections are also taken of the first 2 mm proximal and distal to the stent. Sections are stained with hematoxylin-eosin and Movat pentachrome stains. […] The neointima and neointimal thickness is measured both at and between the stent struts. The vessel area is measured as the area within the EEL. Cells staining positively as macrophages are counted in the sections taken from the stented area of artery. Data are expressed as mean ±SEM. Statistical analysis of the histologic data is accomplished using ANOVA due to the fact that two stented arteries are measured per animal with a mean generated per animal. […]

[5] = test system: allogeneic kidney transplantation; settings: oral administration; cited from earlier work

Row | pimecrolimus release from coated stents [2] | pimecrolimus release from coated stents in plasma [3] | Compound | constrictive remodeling ([1]; local administration to the adventitia) | infiltration of CD45+ leukocytes ([1]; local administration to the adventitia via catheter/Alzet minipump, day 1) | early and late neointimal lesions ([1]; local administration to the adventitia, early 9 days and late 21-28 days post-ballooning) | CD45-positive leukocyte infiltration into the vessel wall and adventitia ([1]; oral dosing, 1 day post-balloon injury) | neointimal lesion formation following balloon injury ([1]; oral dosing, at 9 and 12 days) | extent of restenotic lesion formation ([4]; 28 days after stenting) | lesion formation in the portions of artery immediately proximal and immediately distal to the stent ([4]; 28 days) | number of inflammatory cells, especially in the area surrounding the stent struts ([4]; 28 days) | minimum effective dose (MED) [5] [mg/kg]
1 | stable pimecrolimus release | stable pimecrolimus release | CC[C@@H]1/C=C(\C)C[C@H](C)C[C@H](OC)[C@H]2O[C@@](O)(C(=O)C(=O)N3CCCC[C@H]3C(=O)O[C@H](/C(C)=C/[C@@H]3CC[C@H](Cl)[C@H](OC)C3)[C@H](C)[C@@H](O)CC1=O)[C@H](C)C[C@@H]2OC [pimecrolimus, {[1E-(1R,3R,4S)]1R,9S,12S,13R,14S,17R,18E,21S,23S,24R,25S,27R}-12-[2-(4-chloro-3-methoxycyclohexyl)-1-methylvinyl]-17-ethyl-1,14-dihydroxy-23,25-dimethoxy-13,19,21,27-tetramethyl-11,28,dioxa-4-azatricyclo [22.3.1.0(4,9)]octacos-18-ene-2,3,10,16-tetraone] | potent inhibition | potent inhibition | potent inhibition | significantly reduce | significantly reduce | marked reduction | inhibited | significantly reduced | 
2 |  |  | C=CC[C@@H]1/C=C(\C)C[C@H](C)C[C@H](OC)[C@H]2O[C@@](O)(C(=O)C(=O)N3CCCC[C@H]3C(=O)O[C@H](/C(C)=C/[C@@H]3CC[C@@H](O)[C@H](OC)C3)[C@H](C)[C@@H](O)CC1=O)[C@H](C)C[C@@H]2OC [tacrolimus] |  |  |  |  |  |  |  |  | 14
